Reference: US20180016554A1, “HUMAN SERUM ALBUMIN-CONTAINING CULTURE MEDIUM FOR GROWTH OF NEURAL STEM CELLS” (AJINOMOTO CO., INC., priority 2015, published 2018)
Entries after “also recorded” stand apart in the source; their conditions may differ.

Test system: neurosphere (neural stem cells and/or neural progenitor cells induced from human pluripotent stem cells)
Assay: Functional evaluation of fatty acid (oleic acid) added to human serum albumin-added medium: neurosphere morphology
Format: cell-based
Conditions: 14 days' culturing
Method: Similar to Example 1, 2.1 mg/mL human serum albumin-added medium was produced. A medium was produced by adding oleic acid (Tokyo Chemical Industry Co., Ltd.) at a final concentration of 20 μM or 60 μM to this medium, and a medium without addition of oleic acid was produced, and neurospheres were cultured in these media. […] The medium was exchanged every 7 days and, after 14 days' culturing, the morphology of the neurosphere formed was observed under a microscope.

With `CCCCCCCC/C=C\CCCCCCCC(=O)O` [oleic acid] the “morphology of the neurosphere formed” value (20 μM oleic acid in 2.1 mg/mL human serum albumin-added medium) was “showed a good neurosphere form” and the “morphology of the neurosphere formed” value (60 μM oleic acid in 2.1 mg/mL human serum albumin-added medium) was “show a black sphere with an irregular shape; also recorded: Many black sphere images with an irregular shape were confirmed”.
